From PubChem BioAssay AID1963858 (Molecular Pharmacology Branch, DTP, NCI, 2024)

Test system: HOP-62 multicell spheroids with HUVEC/MSC, viability
Assay: Anticancer human tumor HOP-62 cell line growth inhibition [KRAS2];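 also: viability read after a week of compound exposure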;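 as to viability, T/C: 100% = DMSO vehicle-treated spheroids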
Settings: for IC50: curve of first compound; for viability, T/C: stronger effect = lower value
How it was run: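 KRAS-mutant tumor cells were grown as spheroids with HUVEC endothelial cells and human MSCs as stroma. Targeted agents were tested alone and with KRAS pathway inhibitors. Doses started at or near clinical Cmax, or 10 microM, descending half-log.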

[1] = second compound 0.1 µM, first compound 0.0316 µM
[2] = second compound 0.1 µM, first compound 0.1 µM
[3] = second compound 0.1 µM, first compound 0.316 µM
[4] = second compound 0.1 µM, first compound 1 µM
[5] = second compound 0.1 µM, first compound 3.16 µM
[6] = second compound 0.1 µM, first compound 10 µM
[7] = second compound 0.316 µM, first compound 0.0316 µM
[8] = second compound 0.316 µM, first compound 0.1 µM
[9] = second compound 0.316 µM, first compound 0.316 µM
[10] = second compound 0.316 µM, first compound 1 µM
[11] = second compound 0.316 µM, first compound 3.16 µM
[12] = second compound 0.316 µM, first compound 10 µM
[13] = second compound 1 µM, first compound 0.0316 µM
[14] = second compound 1 µM, first compound 0.1 µM
[15] = second compound 1 µM, first compound 0.316 µM
[16] = second compound 1 µM, first compound 1 µM
[17] = second compound 1 µM, first compound 3.16 µM
[18] = second compound 1 µM, first compound 10 µM
[19] = second compound 3.16 µM, first compound 0.0316 µM
[20] = second compound 3.16 µM, first compound 0.1 µM
[21] = second compound 3.16 µM, first compound 0.316 µM
[22] = second compound 3.16 µM, first compound 1 µM
[23] = second compound 3.16 µM, first compound 3.16 µM
[24] = second compound 3.16 µM, first compound 10 µM
[25] = second compound 10 µM, first compound 0.0316 µM
[26] = second compound 10 µM, first compound 0.1 µM
[27] = second compound 10 µM, first compound 0.316 µM
[28] = second compound 10 µM, first compound 1 µM
[29] = second compound 10 µM, first compound 3.16 µM
[30] = second compound 10 µM, first compound 10 µM

Row | Structure (SMILES) | IC50 (second compound 0.1 µM) [nM] | IC50 (second compound 0.316 µM) [nM] | IC50 (second compound 1 µM) [nM] | IC50 (second compound 3.16 µM) [nM] | IC50 (second compound 10 µM) [nM] | viability, T/C [1] [%] | viability, T/C [2] [%] | viability, T/C [3] [%] | viability, T/C [4] [%] | viability, T/C [5] [%] | viability, T/C [6] [%] | viability, T/C [7] [%] | viability, T/C [8] [%] | viability, T/C [9] [%] | viability, T/C [10] [%] | viability, T/C [11] [%] | viability, T/C [12] [%] | viability, T/C [13] [%] | viability, T/C [14] [%] | viability, T/C [15] [%] | other results
1 | CC1OCC2(CCN(c3cnc(Sc4ccnc(N)c4Cl)c(N)n3)CC2)C1N (stereo not given) + COc1cc2nc(C)nc(NC(C)c3cc(N)cc(C(F)(F)F)c3)c2cc1OC1CCOC1 | > 10000 | > 10000 | 1220 | 510 | 51.9 | 89.6 | 88.9 | 79.8 | 66 | 59.5 | 59.5 | 98.4 | 96.1 | 76.2 | 68.9 | 55.5 | 52.8 | 99.4 | 77.9 | 61.2 | viability, T/C [16]: 53.6%; viability, T/C [17]: 41.8%; viability, T/C [18]: 40.3%; viability, T/C [19]: 82%; viability, T/C [20]: 73.8%; viability, T/C [21]: 59.4%; viability, T/C [22]: 38.4%; viability, T/C [23]: 25.7%; viability, T/C [24]: 31.1%; viability, T/C [25]: 58%; viability, T/C [26]: 40.1%; viability, T/C [27]: 26.9%; viability, T/C [28]: 23.7%; viability, T/C [29]: 20.3%; viability, T/C [30]: 18.6%
2 | CC1(C)CCC(CN2CCN(c3ccc(C(=O)NS(=O)(=O)c4ccc(NCC5CCOCC5)c([N+](=O)[O-])c4)c(Oc4cnc5[nH]ccc5c4)c3)CC2)=C(c2ccc(Cl)cc2)C1 + C=CC(=O)N1CCN(c2nc(=O)n(-c3c(C)ccnc3C(C)C)c3nc(-c4c(O)cccc4F)c(F)cc23)C(C)C1 | < 31.6 | 2160 | 2010 | 3670 | < 31.6 | 46.2 | 49.4 | 50.5 | 43.1 | 39.1 | 12.1 | 53.4 | 51.9 | 57.7 | 56.2 | 47.1 | 20.5 | 55 | 57.1 | 50.8 | viability, T/C [16]: 52.6%; viability, T/C [17]: 48%; viability, T/C [18]: 13%; viability, T/C [19]: 64.9%; viability, T/C [20]: 58.9%; viability, T/C [21]: 48.7%; viability, T/C [22]: 54.4%; viability, T/C [23]: 55.7%; viability, T/C [24]: 12.2%; viability, T/C [25]: 43.7%; viability, T/C [26]: 46.5%; viability, T/C [27]: 41.4%; viability, T/C [28]: 41.5%; viability, T/C [29]: 32%; viability, T/C [30]: 16.2%
